Marks after values point to notes of the source that are not given here.
Key:
[1] = test system: male Wister rats; assay: Effect on triglyceride levels in high fructose diet rats; assay type: in vivo, Wistar rats; conditions: for Triglycerides % of control: actual means; for Serum Triglycerides LSMEAN: least squares mean; for Triglycerides: oral gavage, mean ± SD
Description: The effect of the DHA ethyl ester (DHA-EE) produced according to the method of Example 2 on triglyceride levels was investigated using male Wister rats. The DHA-EE used in this example contained DHA at about 93.6% (wt/wt) of the total fatty acid content of the dosage form. The effect of purified DHA-EE was compared to two different DHA-containing products: DHASCO-T® (Martek Bioscience Corporation, Columbia, Md.) and Lovaza® (Reliant Pharmaceuticals, Inc., Durham, N.C.). DHASCO-T® comprises approximately 45% DHA and 55% other fatty acids (with substantially no EPA). Lovaza® comprises approximately 41.7% DHA ethyl ester, 51.7% EPA ethyl ester, and 6.4% other fatty acids. The vehicle control comprised corn oil. 84 Wistar rats were randomized into 7 groups of 12 rats each. Each rat was administered orally a high fructose diet for 4-5 weeks to raise triglyceride levels. After 4-5 weeks, rats with a triglyceride level <300 mg/dL were excluded. Then each rat was administered either (a) a vehicle control, (b) DHA ethyl ester (0.6 g/kg/day, 1.3 g/kg/day, 2.5 g/kg/day, or 5.0 g/kg/day), (c) DHASCO-T (5.0 g/kg/day), or (d) Lovaza (5.0 g/kg/day) for 28 days by oral gavage. Diets were controlled for calories, nutrients and levels of vitamin E. Triglyceride levels of the rats were measured at 14 days and 28 days. Triglyceride values shown are averages for each treatment group, presented as actual mean values.
The triglyceride results presented below in Table 8 are calculated from the same data set as in Table 7. Triglyceride values shown in Table 8 are averages for each treatment group, presented as least squares mean values.

[2] = test system: male Wister rats; assay: Effect on total cholesterol levels in rats; assay type: in vivo, Wistar rats; conditions: for Serum Cholesterol % of control: actual means; for Serum Cholesterol LSMEAN: least squares mean; for Serum Cholesterol: mean ± SD
Procedure: The effect of the DHA ethyl ester of Example 2 on cholesterol levels was investigated using male Wister rats, and was compared to DHASCO-T® and Lovaza®. The rats were administered either (a) a vehicle control, (b) DHA ethyl ester (0.6 g/kg/day, 1.3 g/kg/day, 2.5 g/kg/day, or 5.0 g/kg/day), (c) DHASCO-T (5.0 g/kg/day), or (d) Lovaza (5.0 g/kg/day) for 28 days. Cholesterol levels, i.e., total cholesterol, of the rats were measured at 14 days and 28 days. Total cholesterol values shown are averages for each treatment group, i.e., actual mean values.
The cholesterol results presented below in Table 10 are calculated from the same data set as in Table 9. Cholesterol level values shown in Table 10 are averages for each treatment group, presented as least squares mean values.

[3] = rat, in vivo
Description: The plasma DHA fatty acid area percent and plasma EPA fatty acid area percent were determine in the rats at day 1 and day 29 (post necropsy).

[4] = day 14, 0.6 g/kg/day fatty acid
[5] = day 14, 1.3 g/kg/day fatty acid
[6] = day 14, 2.5 g/kg/day fatty acid
[7] = day 14, 5.0 g/kg/day fatty acid
[8] = day 28, 0.6 g/kg/day fatty acid
[9] = day 28, 1.3 g/kg/day fatty acid
[10] = day 28, 2.5 g/kg/day fatty acid
[11] = day 28, 5.0 g/kg/day fatty acid

Q: With `CC/C=C\C/C=C\C/C=C\C/C=C\C/C=C\C/C=C\CCC(=O)OCC` [DHA-EE, ethyl docosahexaenoate] as the compound, how does the triglyceride levels ([1]; 14 days, lowest dosage level (0.6 g/kg/day)) read?
A: reduces triglyceride levels

Q: And the “Serum Triglycerides % of control (LSMEAN)” value (from here on “Serum Triglycerides %”) [1, 4]?
A: 65%

Q: What about the “Triglycerides % of control” value [1, 4] of the same compound?
A: 67%

Q: What about the “Serum Triglycerides LSMEAN” value [1, 4] of the same compound?
A: 168.4† mg/dL

Q: What about the Triglycerides [1, 4] of the same compound?
A: 176.5 ± 96.4 mg/dL

Q: And the “Serum Triglycerides %” value [1, 5]?
A: 67%

Q: And the “Triglycerides % of control” value [1, 5]?
A: 66%

Q: What about the “Serum Triglycerides LSMEAN” value [1, 5] of the same compound?
A: 173.6† mg/dL

Q: And the Triglycerides [1, 5]?
A: 175.2 ± 50.6 mg/dL

Q: What about the “Serum Triglycerides %” value [1, 6] of the same compound?
A: 47%

Q: And the “Triglycerides % of control” value [1, 6]?
A: 44%

Q: What about the “Serum Triglycerides LSMEAN” value [1, 6] of the same compound?
A: 120.2† mg/dL

Q: What about the Triglycerides [1, 6] of the same compound?
A: 115.5 ± 60.9 mg/dL

Q: What about the “Serum Triglycerides %” value [1, 7] of the same compound?
A: 43%

Q: What about the “Triglycerides % of control” value [1, 7] of the same compound?
A: 37%

Q: And the “Serum Triglycerides LSMEAN” value [1, 7]?
A: 110.7† mg/dL

Q: What about the Triglycerides [1, 7] of the same compound?
A: 97.6 ± 47.8 mg/dL

Q: What about the “triglyceride levels vs control” value ([1]; day 28, 0.6 g DHA-EE, DHASCO-T 5.0 g/kg/day) of the same compound?
A: not significantly lower than control

Q: And the “Serum Triglycerides %” value [1, 8]?
A: 93%

Q: What about the “Triglycerides % of control” value [1, 8] of the same compound?
A: 95%

Q: And the “Serum Triglycerides LSMEAN” value [1, 8]?
A: 174.5 mg/dL

Q: And the Triglycerides [1, 8]?
A: 182.7 ± 86.9 mg/dL

Q: And the “Serum Triglycerides %” value [1, 9]?
A: 60%

Q: And the “Triglycerides % of control” value [1, 9]?
A: 60%

Q: What about the “Serum Triglycerides LSMEAN” value [1, 9] of the same compound?
A: 113.1† mg/dL

Q: And the Triglycerides [1, 9]?
A: 114.7 ± 37.2 mg/dL

Q: And the “Serum Triglycerides %” value [1, 10]?
A: 60%

Q: And the “Triglycerides % of control” value [1, 10]?
A: 56%

Q: What about the “Serum Triglycerides LSMEAN” value [1, 10] of the same compound?
A: 112.6† mg/dL

Q: And the Triglycerides [1, 10]?
A: 107.9 ± 58.4 mg/dL

Q: What about the “Serum Triglycerides %” value [1, 11] of the same compound?
A: 47%

Q: And the “Triglycerides % of control” value [1, 11]?
A: 41%

Q: And the “Serum Triglycerides LSMEAN” value [1, 11]?
A: 87.6† mg/dL

Q: What about the Triglycerides [1, 11] of the same compound?
A: 78.9 ± 46.5 mg/dL

Q: What about the cholesterol levels ([2]; by 14 days, lowest dosage level) of the same compound?
A: reduces cholesterol levels

Q: What about the “Serum Cholesterol % of control (LSMEAN)” value [2, 4] of the same compound?
A: 80%

Q: What about the “Serum Cholesterol % of control” value [2, 4] of the same compound?
A: 79%

Q: And the “Serum Cholesterol LSMEAN” value [2, 4]?
A: 72.4 mg/dL

Q: What about the “Serum Cholesterol” value [2, 4] of the same compound?
A: 72.2 ± 17.7 mg/dL

Q: What about the “Serum Cholesterol % of control (LSMEAN)” value [2, 5] of the same compound?
A: 82%

Q: What about the “Serum Cholesterol % of control” value [2, 5] of the same compound?
A: 82%

Q: And the “Serum Cholesterol LSMEAN” value [2, 5]?
A: 74.6 mg/dL

Q: What about the “Serum Cholesterol” value [2, 5] of the same compound?
A: 75.0 ± 24.0 mg/dL

Q: What about the “Serum Cholesterol % of control (LSMEAN)” value [2, 6] of the same compound?
A: 85%

Q: And the “Serum Cholesterol % of control” value [2, 6]?
A: 85%

Q: What about the “Serum Cholesterol LSMEAN” value [2, 6] of the same compound?
A: 77.4 mg/dL

Q: What about the “Serum Cholesterol” value [2, 6] of the same compound?
A: 77.6 ± 23.1 mg/dL

Q: And the “Serum Cholesterol % of control (LSMEAN)” value [2, 7]?
A: 75%

Q: And the “Serum Cholesterol % of control” value [2, 7]?
A: 74%

Q: And the “Serum Cholesterol LSMEAN” value [2, 7]?
A: 67.8 mg/dL

Q: What about the “Serum Cholesterol” value [2, 7] of the same compound?
A: 67.1 ± 17.9 mg/dL

Q: What about the “Serum Cholesterol % of control (LSMEAN)” value [2, 8] of the same compound?
A: 80%

Q: And the “Serum Cholesterol % of control” value [2, 8]?
A: 80%

Q: What about the “Serum Cholesterol LSMEAN” value [2, 8] of the same compound?
A: 80.6 mg/dL

Q: And the “Serum Cholesterol” value [2, 8]?
A: 80.3 ± 21.8 mg/dL

Q: What about the “Serum Cholesterol % of control (LSMEAN)” value [2, 9] of the same compound?
A: 62%

Q: And the “Serum Cholesterol % of control” value [2, 9]?
A: 62%

Q: And the “Serum Cholesterol LSMEAN” value [2, 9]?
A: 61.6† mg/dL

Q: What about the “Serum Cholesterol” value [2, 9] of the same compound?
A: 62.0 ± 16.0 mg/dL

Q: And the “Serum Cholesterol % of control (LSMEAN)” value [2, 10]?
A: 72%

Q: What about the “Serum Cholesterol % of control” value [2, 10] of the same compound?
A: 72%

Q: What about the “Serum Cholesterol LSMEAN” value [2, 10] of the same compound?
A: 71.3† mg/dL

Q: What about the “Serum Cholesterol” value [2, 10] of the same compound?
A: 71.5 ± 17.8 mg/dL

Q: And the “Serum Cholesterol % of control (LSMEAN)” value [2, 11]?
A: 60%

Q: What about the “Serum Cholesterol % of control” value [2, 11] of the same compound?
A: 60%

Q: And the “Serum Cholesterol LSMEAN” value [2, 11]?
A: 60.9† mg/dL

Q: What about the “Serum Cholesterol” value [2, 11] of the same compound?
A: 60.2 ± 19.3 mg/dL

Q: What about the “plasma DHA fatty acid area percent” value [3] of the same compound?
A: correlates with increasing dosing of DHA

Q: What about the “plasma EPA fatty acid area percent” value [3] of the same compound?
A: does not increase in rats administered DHA-EE or DHASCO® to the same extent that it is increased in Lovaza®

Reference: patent US20110082205A1, “Docosahexaenoic Acid Gel Caps” (priority 2009, published 2011)
